Earlier results, collected in US9609876B2, “Antimicrobial compositions” (priority 2012, dated 2017).

Key:
[1] = in vivo

For `CC(=O)CCC(=O)O` [Levulinic acid], the LD50 [1] is listed as 1850 mg/kg.

In the case of `CCCCCCCCCCCC(=O)N[C@@H](CCCNC(=N)N)C(=O)OCC.Cl` [LAE, N^α-lauroyl-L-arginine ethyl ester monohydrochloride], the “pH range in which it is stable and maintains its antimicrobial activity” value is given as 3-7.
